From paper PMC4503722, “Novel Phenotypic Outcomes Identified for a Public Collection of Approved Drugs from a Publicly Accessible Panel of Assays” (PLoS ONE, 2015)
Read-outs that look alike come from different tables or passages of the source.

What was measured:
[1] = system: endothelial tube formation in co-cultures of ECFCs and ADSCs treated with VEGF; experiment: cells; assay type: cell-based, human
DLD-1 = experiment: cells; assay type: cell-based
SW480 = experiment: cells; assay type: cell-based
HCT116 = experiment: cells; assay type: cell-based
[2] = system: HCT116 cells treated with a GSK3β inhibitor; experiment: cells; assay type: cell-based
Colo320 = experiment: cells; assay type: cell-based
HT-29 = experiment: cells; assay type: cell-based
RKO = experiment: cells; assay type: cell-based
SNU-C1 = experiment: cells; assay type: cell-based
[3] = system: ECFC/ADSC co-culture cell nuclei number
[4] = assay number 26, GSK3b inhibitor pretreated

Row | SMILES | VEGF_ADSC\ECFC Angio CD31 TubeArea IC50/EC50 [1] | Basal_Viability ATP DLD-1 IC50/EC50 (DLD-1; assay number 23, basal) | Basal_Viability ATP SW480 IC50/EC50 (SW480; assay number 24, basal) | Basal_Viability ATP HCT116 IC50/EC50 (HCT116; assay number 25, basal) | GSK3b inh pretreated_Viability ATP HCT116 IC50/EC50 [2, 4] | Basal_Viability ATP Colo 320 IC50/EC50 (Colo320; assay number 27, basal) | Basal_Viability ATP HT-29 IC50/EC50 (HT-29; assay number 28, basal) | Basal_Viability ATP RKO IC50/EC50 (RKO; assay number 29, basal) | Basal_Viability ATP SNU-C1 IC50/EC50 (SNU-C1; assay number 30, basal) | VEGF_ADSC\ECFC Angio Hoechst NucArea IC50/EC50 [3] | also measured
1 | C=CCN1CC[C@]23CCCC[C@H]2[C@H]1Cc1ccc(O)cc13 [NCGC00162247-06] |  |  |  |  |  |  |  |  |  |  | IC50/EC50, VEGF_ADSC\ECFC Angio CD31 TubeArea (assay number 2) [1]: > 10 µM; IC50/EC50, Basal_Viability ATP DLD-1 (assay number 23) (DLD-1; basal): > 20 µM; IC50/EC50, Basal_Viability ATP SW480 (assay number 24) (SW480; basal): > 20 µM; IC50/EC50, Basal_Viability ATP HCT116 (assay number 25) (HCT116; basal): > 20 µM; IC50/EC50, GSK3b inh pretreated_Viability ATP HCT116 (assay number 26) ([2]; GSK3b inh pretreated): > 20 µM; IC50/EC50, Basal_Viability ATP Colo 320 (assay number 27) (Colo320; basal): > 20 µM; IC50/EC50, Basal_Viability ATP HT-29 (assay number 28) (HT-29; basal): > 20 µM; IC50/EC50, Basal_Viability ATP RKO (assay number 29) (RKO; basal): > 20 µM; IC50/EC50, Basal_Viability ATP SNU-C1 (assay number 30) (SNU-C1; basal): > 20 µM; IC50/EC50, VEGF_ADSC\ECFC Angio Hoechst NucArea (assay number 3) [3]: > 10 µM
2 | COc1ccc2c(c1)c1c3n2CCN(C)C3=NCC1 [NCGC00072886-03] | > 10 µM | > 20 µM | > 20 µM | > 20 µM | > 20 µM | > 20 µM | > 20 µM | > 20 µM | > 20 µM | > 10 µM | 
3 | Cc1cc2nc3ccc(=[N+](C)C)cc-3sc2cc1N.[Cl-] [NCGC00181775-02] | 2.45 µM |  |  |  |  |  |  |  |  | 8.146 µM | Basal_Viability ATP DLD-1 IC50/EC50 (DLD-1): 9.38 µM; Basal_Viability ATP SW480 IC50/EC50 (SW480): 1.397 µM; Basal_Viability ATP HCT116 IC50/EC50 (HCT116): 2.782 µM; GSK3b inh pretreated_Viability ATP HCT116 IC50/EC50 [2]: 1.693 µM; Basal_Viability ATP Colo 320 IC50/EC50 (Colo320): 0.9874 µM; Basal_Viability ATP HT-29 IC50/EC50 (HT-29): 5.063 µM; Basal_Viability ATP RKO IC50/EC50 (RKO): 0.9955 µM; Basal_Viability ATP SNU-C1 IC50/EC50 (SNU-C1): 5.5567 µM
4 | CO[C@H]1O[C@@H]2O[C@@]3(C)CC[C@H]4[C@H](C)CC[C@@H]([C@H]1C)[C@@]24OO3 [NCGC00164591-04] | > 10 µM | > 20 µM | > 20 µM | > 20 µM | > 20 µM | > 20 µM | > 20 µM | > 20 µM | > 20 µM | > 10 µM | 
5 | Cc1cccc(C)c1NC(=O)CC12CCCN1CCC2 [NCGC00167454-02] | > 10 µM | > 20 µM | > 20 µM | > 20 µM | > 20 µM | > 20 µM | > 20 µM | > 20 µM | > 20 µM | > 10 µM | 
6 | Cl.NC1=NCC2c3ccccc3Cc3ccccc3N12 (stereo not drawn) [NCGC00165791-04] | > 10 µM | > 20 µM | > 20 µM | > 20 µM | > 20 µM | > 20 µM | > 20 µM | > 20 µM | > 20 µM | > 10 µM | 
